# “Also recorded” adds a separate entry of the source. Like-named read-outs stand apart in the source and are kept apart here.
# Columns and labels:
# [1] = tested on: E. coli BL21 (DE3) cells with/without the kasH or kasF gene; assay: Disc diffusion assay (resistance assay); format: cell-based
# Experimental: KSM susceptibility and production were confirmed by disc diffusion assay. An E. coli culture was grown at 37 °C overnight and spread on an LB agar plate (pH 7.0). About 5 µL of extracted samples from Streptomyces lividans TK64 (from days 2–5) were loaded onto the paper disc. The disc was placed onto the surface of an LB agar plate and incubated at 37 °C overnight to visualize the zone of inhibition (ZOI).
# For the KSM resistant assay, BL21 cells with/without the kasH or kasF gene were individually expressed and seeded on LB agar plates (pH 7.0). About 5 µL of different aminoglycoside antibiotics (amikacin, gentamicin, sisomicin, streptothricin-F, or tobramycin) were loaded onto each paper disc and placed on the surface of the LB plates. The plates were incubated 37 °C overnight to visualize the appearance of the zone of inhibition (ZOI). Note: this is a standard protocol for evaluating the effectiveness of common antibiotics, including aminoglycosides; there is no apparent impact concerning the structural integrity or biological deterioration of the selected aminoglycosides at pH 7.0 during the examining course.
# [2] = target: T1, KasQ (Streptomyces kasugaensis, UniProt A0A0K1H2R6); assay: Isothermal titration calorimetry (ITC) of KasQ wild type versus substrates; format: binding; details: KasQ wild type; for ∆G / ∆H / ∆S / Kd: ITC;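 for all read-outs here: titration of 1 mM substrate into 0.1 mM KasQ, 18 injections spaced 120 s, data fitted to a single-site binding model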
# Experimental: (§3) ITC analyses were carried out at 25 °C using an ITC200 microcalorimeter (MicroCal Inc., Northampton, MA, USA). […] The titration experiment contains 18 injections (2 μL for a duration of 4 s) and each injection was separated by 120 s. The distilled water was filled in the reference cell throughout all titrations. The cell stirring speed was 1000 rpm. The collected raw data were processed in Origin 7.0 (provided by MicroCal) by a non-linear least square method to a single-site binding model.
# [3] = target: KasQ E308A (Streptomyces kasugaensis, UniProt A0A0K1H2R6, E308A); assay: biochemical; format: binding
# Experimental: (§1) Site-directed mutagenesis was performed using QuikChange (Stratagene), following the manufacturer’s protocol. The wild-type KasQ plasmid (BCRC12349) was used as the template for the single mutation. All mutations were confirmed by DNA sequencing. KasQ mutants were expressed and purified with the same protocol as used for the wild-type protein.
# (§2) The cell stirring speed was 1000 rpm.
# [4] = target: KasQ Q95A (Streptomyces kasugaensis, UniProt A0A0K1H2R6, Q95A); assay: biochemical; format: binding; details: for n: ITC binding stoichiometry; for n / ∆G / ∆H / ∆S: KasQ mutant Q95A; for ∆G / ∆H / ∆S: ITC
# Experimental: as §1, §2
# [5] = target: KasQ Q95E (Streptomyces kasugaensis, UniProt A0A0K1H2R6, Q95E); assay: biochemical; format: binding; details: for n: ITC binding stoichiometry; for n / ∆G / ∆H / ∆S: KasQ mutant Q95E; for ∆G / ∆H / ∆S: ITC
# Experimental: as §1, §2
# [6] = target: KasQ E308Q (Streptomyces kasugaensis, UniProt A0A0K1H2R6, E308Q); format: binding; details: ITC; KasQ mutant E308Q
# Experimental: as §1, §2
# [7] = target: T1, KasQ; assay: HPLC kinetic analysis of KasQ epimerization; format: biochemical; details: KasQ_WT with UDP-GlcNAc and 1 mM MgCl2, 25 mM Tris pH 8.0, 37 °C
# Experimental: The reaction mixture was mixed by vortex and incubated at 37 °C. Reactions were stopped at six different time points (10, 30, 60, 120, 180, and 240 min) by adding equal volumes of chloroform. Precipitation was removed by centrifugation and analyzed by HPLC-LTQ-MS using HPLC method B as described above. […] The Michaelis–Menten curve of the KasQ activity was derived from the integrated peak area of each reaction.
# [8] = target: T2, KasH (Streptomyces kasugaensis, UniProt A0A0K1H2T0); assay: HPLC acetylation assay with KasH and AcCoA; format: biochemical; details: 1 mM substrate, 0.5 mM AcCoA, 37 °C, 12 h
# [9] = tested on: KasF; assay: HPLC acetylation assay with KasF and AcCoA; format: biochemical, Streptomyces kasugaensis; details: 1 mM substrate, 0.5 mM AcCoA, 37 °C, 12 h
# [10] = target: T2, KasH; assay: ITC of KasH versus ligands;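 note: isothermal titration calorimetry at 25 °C, 0.1 mM KasH in the cell titrated with 1 mM ligand over 18 injections, data fit with a one-site binding model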
# Experimental: as §3
# [11] = target: KasQ (Streptomyces kasugaensis); assay: not stated; oligomeric state of the purified protein in solution (Figure S3: protein overexpression and purification); the method is not named in the text shown
# [12] = target: the molecule itself; assay: as above
# [13] = E. coli BL21 with/without the kasH or kasF gene, all conditions
# [14] = 25 °C, 50 mM HEPES pH 8.0, 100 mM NaCl
# Chain of KasQ Q95E (A0A0K1H2R6 entry or part of it Q95E): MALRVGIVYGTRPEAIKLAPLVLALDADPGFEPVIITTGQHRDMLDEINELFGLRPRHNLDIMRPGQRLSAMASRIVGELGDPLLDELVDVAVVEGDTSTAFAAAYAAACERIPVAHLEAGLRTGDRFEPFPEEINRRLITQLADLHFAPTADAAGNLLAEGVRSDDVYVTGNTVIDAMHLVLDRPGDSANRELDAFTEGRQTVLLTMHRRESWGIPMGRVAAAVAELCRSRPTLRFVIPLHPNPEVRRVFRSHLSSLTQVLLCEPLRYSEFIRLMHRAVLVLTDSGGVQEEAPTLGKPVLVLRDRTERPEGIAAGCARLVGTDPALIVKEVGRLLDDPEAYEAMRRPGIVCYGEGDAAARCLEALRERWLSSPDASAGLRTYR
# T1 sequence (A0A0K1H2R6 entry or part of it): as the sequence (A0A0K1H2R6 entry or part of it Q95E) above, with E95Q counted along it
# Chain of KasQ E308A (A0A0K1H2R6 entry or part of it E308A): as the sequence (A0A0K1H2R6 entry or part of it Q95E) above, with E95Q counted along it
# Chain of KasQ E308Q (A0A0K1H2R6 entry or part of it E308Q): as the sequence (A0A0K1H2R6 entry or part of it Q95E) above, with E95Q counted along it
# Chain of KasQ Q95A (A0A0K1H2R6 entry or part of it Q95A): as the sequence (A0A0K1H2R6 entry or part of it Q95E) above, with E95A counted along it
molecule,measurement,setting,value
CNC(C)C1CCC(N)C(OC2C(N)CC(N)C(OC3OCC(C)(O)C(NC)C3O)C2O)O1 (stereo not drawn) [gentamicin],zone of inhibition (ZOI),[1]; [13],appearance of ZOI in all conditions
NC[C@H]1O[C@H](O[C@H]2[C@H](O)[C@@H](O[C@H]3O[C@H](CO)[C@@H](O)[C@H](N)[C@H]3O)[C@H](N)C[C@@H]2N)[C@H](N)C[C@@H]1O [tobramycin],zone of inhibition (ZOI),[1]; [13],appearance of ZOI in all conditions
"CC(=O)NC1C(OP(=O)(O)OP(=O)(O)OCC2OC(n3ccc(=O)[nH]c3=O)C(O)C2O)OC(CO)C(O)C1O (stereo not drawn) [UDP-GlcNAc 1, UDP-N-acetyl-glucosamine]",∆G,[2],NBD
same,∆H,[2],NBD
same,∆S,[2],NBD
same,Kd,[2]; [14],NBD
same,Kd,"[3]; ITC, KasQ mutant E308A",NBD
same,∆G,"[3]; ITC, KasQ mutant E308A",NBD
same,∆H,"[3]; ITC, KasQ mutant E308A",NBD
same,∆S,"[3]; ITC, KasQ mutant E308A",NBD
same,Kd,[4],45.2 µM
same,n,[4],1.6 ± 0.1
same,∆G,[4],-5.939 ± 0.1764 kcal/mol
same,∆H,[4],-0.7212 ± 0.1764 kcal/mol
same,∆S,[4],17.5 cal mol-1 K-1
same,Kd,[5],14.2 µM
same,n,[5],0.7 ± 0.0
same,∆G,[5],-6.607 ± 0.0679 kcal/mol
same,∆H,[5],-0.6141 ± 0.0679 kcal/mol
same,∆S,[5],20.1 cal mol-1 K-1
same,Kd,[6],NBD
same,∆G,[6],NBD
same,∆H,[6],NBD
same,∆S,[6],NBD
same,kcat,[7]; listed as UDP-GlcNAC,1.33 (± 0.24) s^−1
same,kcat,[7]; listed as UDP-GlcNAc,1.33 s⁻¹
"C[C@H]1O[C@H](O[C@H]2[C@H](O)[C@@H](O)[C@@H](O)[C@H](O)[C@@H]2O)[C@@H](N)C[C@@H]1NC(=N)C(=O)O [KSM, Kasugamycin]",growth of E. coli in the presence of KSM,"[1]; E. coli BL21 (DE3) carrying the kasF gene, disc ~5 μL of 7.6 mg/mL KSM",moderate growth
same,growth of E. coli in the presence of KSM,"[1]; E. coli BL21 (DE3) carrying the kasH gene, disc ~5 μL of 7.6 mg/mL KSM",not affected
same,zone of inhibition (ZOI),"[1]; E. coli BL21 (DE3) with empty pET28a+ (no acetyltransferase gene), disc ~5 μL of 7.6 mg/mL KSM",clear zone of inhibition
same,acetylation by KasH,[8],completely acetylated
same,acetylation by KasF,[9],partially acetylated
same,n,"[10]; ITC binding stoichiometry, KasH, 50 mM MOPS pH 7.5, 100 mM NaCl",1.0 ± 0.1
same,∆G,"[10]; ITC, KasH",-5.804 ± 0.4705 kcal/mol
same,∆H,"[10]; ITC, KasH",-2.316 ± 0.4705 kcal/mol
same,∆S,"[10]; ITC, KasH",11.7 cal mol-1 K-1
same,Kd,"[10]; ITC, KasH, 50 mM MOPS pH 7.5, 100 mM NaCl",56.1 µM
same,binding affinity versus KasH relative to AcCoA,"[10]; ITC, higher than AcCoA",2.9 fold
same,binding affinity versus KasH relative to CoA,"[10]; ITC, higher than CoA",1.7 fold
O=C(O)[C@H]1O[C@H](OP(=O)(O)OP(=O)(O)OC[C@H]2O[C@@H](n3ccc(=O)[nH]c3=O)[C@H](O)[C@@H]2O)[C@H](O)[C@@H](O)[C@@H]1O [UDP-GlcA],n,"[2]; ITC binding stoichiometry, 25 °C, 50 mM HEPES pH 8.0, 100 mM NaCl",1.5 ± 0.2
same,∆G,[2],-5.61 ± 0.5751 kcal/mol
same,∆H,[2],-1.376 ± 0.5751 kcal/mol
same,∆S,[2],14.2 cal mol^−1 K^−1
same,Kd,"[2]; 25 °C, 50 mM HEPES pH 8.0, 100 mM NaCl, read-out: Kd",76.3 ± 15.2 µM
same,Kd,[3],106 µM
same,n,"[3]; ITC binding stoichiometry, KasQ mutant E308A",1.1 ± 0.7
same,∆G,"[3]; ITC, KasQ mutant E308A",-5.421 ± 3.692 kcal/mol
same,∆H,"[3]; ITC, KasQ mutant E308A",-3.194 ± 3.692 kcal/mol
same,∆S,"[3]; ITC, KasQ mutant E308A",7.47 cal mol-1 K-1
same,Kd,[4],44.4 µM
same,n,[4],1.7 ± 0.0
same,∆G,[4],-5.922 ± 0.0847 kcal/mol
same,∆H,[4],-0.6748 ± 0.0847 kcal/mol
same,∆S,[4],17.6 cal mol-1 K-1
same,Kd,[5],11.8 µM
same,n,[5],2.1 ± 0.1
same,∆G,[5],-7.15 ± 0.0195 kcal/mol
same,∆H,[5],-0.4413 ± 0.0195 kcal/mol
same,∆S,[5],22.5 cal mol-1 K-1
NCC[C@H](O)C(=O)N[C@@H]1C[C@H](N)[C@@H](O[C@H]2O[C@H](CN)[C@@H](O)[C@H](O)[C@H]2O)[C@H](O)[C@H]1O[C@H]1O[C@H](CO)[C@@H](O)[C@H](N)[C@H]1O [amikacin],zone of inhibition (ZOI),[1]; [13],appearance of ZOI in all conditions
CN[C@@H]1[C@@H](O)[C@@H](O[C@@H]2[C@@H](O)[C@H](O[C@H]3OC(CN)=CC[C@H]3N)[C@@H](N)C[C@H]2N)OC[C@]1(C)O [sisomicin],zone of inhibition (ZOI),[1]; [13],appearance of ZOI in all conditions
NC1C(OP(=O)(O)OP(=O)(O)OCC2OC(n3ccc(=O)[nH]c3=O)C(O)C2O)OC(CO)C(O)C1O (stereo not drawn) [UDP-GlcNH2],∆G,[2],NBD
same,∆H,[2],NBD
same,∆S,[2],NBD
same,Kd,[2]; [14],"Neither UDP-GlcNH2 that was enzymatically synthesized using the published procedure [38] nor AMP, ADP, ATP, GMP, GDP, or GTP shows detectable binding affinity and NBD"
same,acetylation by KasF,[9],not subject to acetylation of KasF; also recorded: could not observe the formation of UDP-GlcNAc
KasQ (enzyme),stoichiometry N,[11],2
NC[C@H]1O[C@H](O[C@H]2[C@H](O)[C@@H](O[C@H]3O[C@H](CO)[C@@H](O)[C@H](N)[C@H]3O)[C@H](N)C[C@@H]2N)[C@H](N)[C@@H](O)[C@@H]1O [kanamycin B],zone of inhibition (ZOI),[1]; [13],appearance of ZOI in all conditions
NCCC[C@H](N)CC(=O)N[C@@H]1[C@H](O)[C@@H](OC(N)=O)[C@@H](CO)O[C@H]1NC1=N[C@@H]2C(=O)NC[C@@H](O)[C@H]2N1 [streptothricin-F],zone of inhibition (ZOI),[1]; [13],appearance of ZOI in all conditions
"KasH (enzyme, Streptomyces kasugaensis, UniProt A0A0K1H2T0 1-130, looked up, KasH, acetyltransferase of the kasugamycin biosynthetic gene cluster, Streptomyces kasugaensis; gene amplified and cloned into pET28a+; also called acetyltransferase KasH; source: E. coli BL21, purified (Ni-agarose, gel filtration)) MTITYEWRGGFDNAALNALHADGFGPPIAQTDWRTRLERHSLGWVCAWEDGLIGFVNVVWDGGAHAFILDTVVARHCRSRGVGAALVAKAADEARAANCEWLHVDFEEHLRAFYFDACGFKETTAGLIAL",stoichiometry N,[12],2
